Data as given in PubChem BioAssay AID248 (DTP/NCI, 2004).
Several values for one entry are separate records, joined by “and”; a condition that tells them apart may be missing. Equal values may be shown once. Inconclusive results and toxic doses are left out. No stated cut-off is given here; in the data, active means T/C of 150% or more; inactive means T/C below 125%.

System: L1210 leukemia ip in BDF1 mice, survival T/C
Assay: NCI In Vivo Anticancer Drug Screen. Data for tumor model L1210 Leukemia (intraperitoneal) in B6D2F1 (BDF1) mice
Details: endpoint: mean survival time, higher = longer survival
How it was run: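 Mice bearing the transplanted tumor received compound or vehicle. Survival of the treated group was divided by that of the vehicle-treated control group to give the ratio.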

[1] = dose: 100.0 mg/kg/injection, schedule: Q01DX009 (ip), vehicle: Klucel (hydroxypropylcellulose) (HPC)
[2] = dose: 100.0 mg/kg/injection, schedule: Q04DX003 (ip), vehicle: Klucel (hydroxypropylcellulose) (HPC)
[3] = dose: 200.0 mg/kg/injection, schedule: Q01DX009 (ip), vehicle: Klucel (hydroxypropylcellulose) (HPC)
[4] = dose: 200.0 mg/kg/injection, schedule: Q04DX003 (ip), vehicle: Klucel (hydroxypropylcellulose) (HPC)
[5] = dose: 400.0 mg/kg/injection, schedule: Q01DX009 (ip), vehicle: Klucel (hydroxypropylcellulose) (HPC)
[6] = dose: 100.0 mg/kg/injection, schedule: Q01DX001 (ip), vehicle: Klucel (hydroxypropylcellulose) (HPC)
[7] = dose: 200.0 mg/kg/injection, schedule: Q01DX001 (ip), vehicle: Klucel (hydroxypropylcellulose) (HPC)

Measured: T/C

CCCCNC(C)(C)CSSSCC(C)(C)NCCCC
inactive: dose: 6.25 mg/kg/injection, schedule: Q01DX009 (ip), vehicle: water 102 % of control | dose: 12.5 mg/kg/injection, schedule: Q01DX009 (ip), vehicle: water 92 % of control | dose: 12.5 mg/kg/injection, schedule: Q04DX003 (ip), vehicle: other 96 % of control | dose: 25.0 mg/kg/injection, schedule: Q01DX009 (ip), vehicle: water 92 % of control | dose: 25.0 mg/kg/injection, schedule: Q04DX003 (ip), vehicle: other 94 % of control | dose: 50.0 mg/kg/injection, schedule: Q01DX009 (ip), vehicle: other 106 % of control | dose: 50.0 mg/kg/injection, schedule: Q01DX009 (ip), vehicle: water 103 % of control | dose: 50.0 mg/kg/injection, schedule: Q04DX003 (ip), vehicle: other 94 % of control | dose: 100.0 mg/kg/injection, schedule: Q01DX009 (ip), vehicle: other 95 % of control

CN1C(=O)OC(C)(C)C1=O
inactive: dose: 25.0 mg/kg/injection, schedule: Q01DX009 (ip), vehicle: saline 98 % of control | dose: 25.0 mg/kg/injection, schedule: Q04DX003 (ip), vehicle: saline 93 % of control | dose: 50.0 mg/kg/injection, schedule: Q01DX009 (ip), vehicle: saline 95 % of control | dose: 50.0 mg/kg/injection, schedule: Q04DX003 (ip), vehicle: saline 109 % of control | dose: 100.0 mg/kg/injection, schedule: Q01DX009 (ip), vehicle: saline 102 % of control | dose: 100.0 mg/kg/injection, schedule: Q04DX003 (ip), vehicle: saline 98 % of control | dose: 200.0 mg/kg/injection, schedule: Q01DX009 (ip), vehicle: saline 96 % of control | dose: 200.0 mg/kg/injection, schedule: Q04DX003 (ip), vehicle: saline 109 % of control | dose: 400.0 mg/kg/injection, schedule: Q01DX009 (ip), vehicle: saline 106 % of control | dose: 400.0 mg/kg/injection, schedule: Q04DX003 (ip), vehicle: saline 98 % of control

Cc1ccc(C)n1-c1ccccc1C(=O)O
inactive: [1] 95 % of control | [2] 93 % of control | [3] 107 % of control | [4] 106 % of control | [5] 101 % of control | dose: 400.0 mg/kg/injection, schedule: Q04DX003 (ip), vehicle: Klucel (hydroxypropylcellulose) (HPC) 101 % of control

COc1cc(NCCCNc2c3ccc(Cl)cc3nc3ccc(OC)cc23)c2ncccc2c1
inactive: [1] 100 % of control

CC(C)(/C=N/NC(N)=O)c1ccccc1
inactive: dose: 50.0 mg/kg/injection, schedule: Q01DX001 (ip), vehicle: Klucel (hydroxypropylcellulose) (HPC) 96 % of control | [6] 102 % of control | [7] 96 % of control

C=CCOc1ccnc(-c2ccccc2)n1
inactive: [6] 92 % of control | [7] 95 % of control | dose: 400.0 mg/kg/injection, schedule: Q01DX001 (ip), vehicle: Klucel (hydroxypropylcellulose) (HPC) 98 % of control

COc1ccc(C(=O)O)c(CC#N)c1
inactive: [2] 97 % of control | [4] 87 % of control

CCCNC(=O)Nc1ccc(Cl)c(Cl)c1
inactive: dose: 100.0 mg/kg/injection, schedule: Q01DX001 (ip), vehicle: saline 100 % of control | dose: 200.0 mg/kg/injection, schedule: Q01DX001 (ip), vehicle: saline 93 % of control | dose: 400.0 mg/kg/injection, schedule: Q01DX001 (ip), vehicle: saline 92 % of control

O=C(/C=C(/C(=C/C(=O)c1ccccc1)c1ccccc1)c1ccccc1)c1ccccc1
inactive: dose: 50.0 mg/kg/injection, schedule: Q01DX009 (ip), vehicle: Klucel (hydroxypropylcellulose) (HPC) 102 % of control | [1] 94 % of control | [3] 87 % of control

O=C1OC(c2ccccc2)=C/C1=C/c1ccc(Cl)cc1
inactive: dose: 25.0 mg/kg/injection, schedule: Q04DX003 (ip), vehicle: alcohol 88 % of control | dose: 50.0 mg/kg/injection, schedule: Q04DX003 (ip), vehicle: alcohol 90 % of control | dose: 100.0 mg/kg/injection, schedule: Q01DX001 (ip), vehicle: alcohol 86 % of control | dose: 100.0 mg/kg/injection, schedule: Q04DX003 (ip), vehicle: alcohol 87 % of control | dose: 150.0 mg/kg/injection, schedule: Q01DX009 (ip), vehicle: alcohol 89 % of control | dose: 150.0 mg/kg/injection, schedule: Q04DX003 (ip), vehicle: alcohol 87 % of control | dose: 225.0 mg/kg/injection, schedule: Q01DX009 (ip), vehicle: alcohol 86 % of control | dose: 225.0 mg/kg/injection, schedule: Q04DX003 (ip), vehicle: alcohol 91 % of control | dose: 335.0 mg/kg/injection, schedule: Q01DX009 (ip), vehicle: alcohol 107 % of control | dose: 335.0 mg/kg/injection, schedule: Q04DX003 (ip), vehicle: alcohol 90 % of control

O=C(NO)c1cccnc1
inactive: [1] 97 % of control | [3] 102 % of control | dose: 270.0 mg/kg/injection, schedule: Q01DX009 (ip), vehicle: acetone 102 % of control | dose: 270.0 mg/kg/injection, schedule: Q01DX015 (ip), vehicle: water 121 % of control | dose: 400.0 mg/kg/injection, schedule: Q01DX001 (ip), vehicle: water 99 % of control | [5] 101 % of control | dose: 400.0 mg/kg/injection, schedule: Q01DX009 (ip), vehicle: acetone 109 % of control | dose: 600.0 mg/kg/injection, schedule: Q01DX001 (ip), vehicle: water 106 % of control | dose: 600.0 mg/kg/injection, schedule: Q01DX009 (ip), vehicle: acetone 100 % of control | dose: 800.0 mg/kg/injection, schedule: Q01DX001 (ip), vehicle: water 99 % of control | dose: 800.0 mg/kg/injection, schedule: Q01DX009 (ip), vehicle: Klucel (hydroxypropylcellulose) (HPC) 109 % of control | dose: 800.0 mg/kg/injection, schedule: Q01DX009 (ip), vehicle: acetone 103 % of control | dose: 800.0 mg/kg/injection, schedule: Q01DX015 (ip), vehicle: water 110 % of control and 117 % of control

CCN(c1ccccc1P(c1ccccc1)c1ccccc1)c1ccccc1P(c1ccccc1)c1ccccc1
inactive: dose: 25.6 mg/kg/injection, schedule: Q04DX002 (ip), vehicle: saline with Tween-80 89 % of control | dose: 64.0 mg/kg/injection, schedule: Q04DX002 (ip), vehicle: saline with Tween-80 89 % of control | dose: 160.0 mg/kg/injection, schedule: Q04DX002 (ip), vehicle: saline with Tween-80 89 % of control | dose: 400.0 mg/kg/injection, schedule: Q04DX002 (ip), vehicle: saline with Tween-80 89 % of control

Cc1coc2ccccc2c1=O
inactive: dose: 50.0 mg/kg/injection, schedule: Q04DX002 (ip), vehicle: gum acacia 114 % of control | dose: 100.0 mg/kg/injection, schedule: Q04DX002 (ip), vehicle: gum acacia 117 % of control | dose: 200.0 mg/kg/injection, schedule: Q04DX002 (ip), vehicle: gum acacia 107 % of control

COc1ccc(OC)c(CC(C)=O)c1
inactive: dose: 100.0 mg/kg/injection, schedule: Q01DX001 (ip), vehicle: carboxymethylcellulose (CMC) 93 % of control | dose: 200.0 mg/kg/injection, schedule: Q01DX001 (ip), vehicle: carboxymethylcellulose (CMC) 101 % of control | dose: 400.0 mg/kg/injection, schedule: Q01DX001 (ip), vehicle: carboxymethylcellulose (CMC) 95 % of control

CCCC/C=C(/C)C1(CC)C(=O)NC(=O)NC1=O
inactive: dose: 75.0 mg/kg/injection, schedule: Q01DX001 (ip), vehicle: saline 100 % of control and 98 % of control | dose: 150.0 mg/kg/injection, schedule: Q01DX001 (ip), vehicle: saline 93 % of control and 102 % of control
